From patent US4314061A, “Certain 3,6-bis-(heteroaminoalkoxy) acridines” (priority 1980, dated 1982)

Assays:
[1] = test system: Rauscher Virus-Induced Leukemia; test: Inhibition of splenomegaly in mice with Rauscher virus-induced leukemia; type: in vivo, Balb/c mice
normal mouse bone marrow = test: Effect on normal mouse bone marrow; type: in vivo, C57 BL6 male mice; conditions: 24 hours after treatment; test compound oral, Cytoxan intraperitoneal
Description: The effect of drugs on normal mouse bone marrow is evaluated by determining total cell counts of femurs and by the ability of surviving cells to form colonies in semi-solid medium. The test compound is administered orally and the reference drug Cytoxan is administered intraperitoneally to C57 BL6 male mice. One femur from each of three mice per dose level is assayed 24 hours after treatment. Counts of nucleated cells are performed on pooled marrow suspensions and the clonogenic assay is performed by plating 50,000 cells in one ml. of culture medium in each of four culture dishes. The medium to support bone marrow progenitor cell growth is McCoy's medium supplemented with 0.9% methocel, 1.8% human serum albumin, 10% bovine fetal serum and 10% "conditioned" L-cell medium. Cultures are incubated at 37° C. in a humidified atmosphere and colonies are counted at seven days.

Lewis lung carcinoma = test: Surgical-adjuvant antitumor activity against Lewis lung carcinoma implanted subcutaneously in footpads; type: in vivo, BDF1 mice; conditions: 100 mg/kg intraperitoneal
Description: BDF1 mice were inoculated subcutaneously in the right hind footpad with 5×10^5 viable Lewis Lung carcinoma cells, on day zero. […] A control group of mice received a saline placebo instead of drug, and another group of tumor bearing mice received the positive control drug cyclophosphamide, at 100 mg/kg, administered by intraperitoneal injection. On the 11th day after tumor implantation, the mice were anesthesized with Nembutal, and the tumor bearing feet surgically amputated above the ankle joint. The surgical incision was swabbed with alcohol and sealed with stainless steel wound clips. The tumor bearing feet were individually weighed and the average weight of a normal foot (determined by weighing amputated feet from non-tumor bearing mice of the same age, sex and body weight) was subtracted to obtain the weight of tumor tissue in the amputated foot. Mice were then observed for deaths until the 90th day after tumor implantation. […]
^1 BDF1 male mice inoculated subcutaneously in footpad with 5
× 10^5 Lewis lung tumor cells on day zero;
(§1) 3,6bis(2-diethylaminoethoxy)acridine trihydrochloride administered orally
(§2) and Cyclophosphamide intraperitoneally, on days 1, 7, and 13 following
(§3) ^2 Average tumor weight determined after surgical amputation of tumor
bearing foot on day 11 following tumor implantation.

B-16 melanoma = test: Potentiation of cyclophosphamide (Cytoxan) activity against B16 melanoma in mice; type: in vivo, BDF1 mice
Description: BDF1 male mice were inoculated subcutaneously with 0.25 ml. of a 10% B-16 melanoma homogenate. Cyclophosphamide was administered intraperitoneally at 80 mg./kg. the second day following the day of tumor implantation. Test compounds were given intraperitoneally on days +6, +8 and +10 relative to tumor implantation. […]
BDF1 male mice inoculated subcutaneously with 0.25 ml. of a 10% tumo
homogenate on day 0. Drugs were administered intraperitoneally;
cyclophosphoamide on day 2, 3,6bis(2-diethylaminoethoxy)acridine
trihydrochloride on days 6, 8 and 10.
^1 Number of survivors over number of mice treated.

B16 melanoma = test: Surgical-adjuvant antitumor activity against B16 melanoma implanted subcutaneously in footpads; type: in vivo, BDF1 mice; conditions: 100 mg/kg intraperitoneal
Description: BDF1 mice were inoculated subcutaneously in the right hind footpad with 5×10^5 viable B16 melanoma cells, on day zero. The drug was prepared in normal saline and administered by the oral route once daily, on days 1, 7, and 13 following tumor implantation, at doses range from 50 mg/kg to 400 mg/kg. A control group of mice received a saline placebo instead of drug, and another group of tumor bearing mice received the positive control drug cyclophosphamide, at 100 mg/kg, by intraperitoneal injection. On the 21st day after tumor implantation, the mice were anesthesized with Nembutal, and the tumor bearing feet were surgically amputated above the ankle joint. The surgical incision was swabbed with alcohol and sealed with stainless steel wound clips. The tumor bearing feet were individually weighed and the average weight of a normal foot (determined by weighing amputated feet from non-tumor bearing mice of the same sex, age, and body weight) was subtracted to obtain the weight of tumor tissue in the amputated feet. Mice were then observed for deaths until the 90th day after tumor implantation. […]
^1 BDF1 male mice inocluated with 5 × 10^5 B16 melanom
cells subcutaneously in footpad on day zero;
as §1, §2, §3
bearing foot on day 21 following tumor implantation.

tumor = conditions: experimental studies in animals; cited from earlier work
[2] = test system: malignant melanoma, acute leukemia, lung cancer, breast cancer; conditions: early clinical trials; cited from earlier work
[3] = cyclophosphamide 80 mg/kg i.p. alone
[4] = cyclophosphamide 80 mg/kg i.p. alone, day 26

O=P1(N(CCCl)CCCl)NCCCO1 (stereo not shown) [Cyclophosphamide, reference compound]
% Reduction in splenomegaly ([1]; 100 mg/kg): 106% | reduction in splenomegaly ([1]; general statement, no dose, relative to placebo treated RLV-infected mice): ≥ 50% | Effect on total nucleated cell count of femur marrow, in words (normal mouse bone marrow): depressed the cell count significantly | Median survival time (Lewis lung carcinoma): > 90.0 days | Average tumor weight (Lewis lung carcinoma; Day +11): 93 mg | Average % of tumor weight inhibition (Lewis lung carcinoma; Day +11, * significant (≥58%)): 75% | No. Survivors/No. Treated (Lewis lung carcinoma; at +90 days, ** p < .05): 10/12 | % Increased life-span (Lewis lung carcinoma; + significant (≥25%)): > 200% | ILS (Percent increase in life span over control) (B-16 melanoma; [3]): 11% | MST (Median Survival Time) (B-16 melanoma; [3]): 25.0 days | Number of survivors over number of mice treated (B-16 melanoma; cyclophosphamide 80 mg/kg i.p. alone, day 21): 8/8 | Average tumor weight (B-16 melanoma; cyclophosphamide 80 mg/kg i.p. alone, day 21, p <0.05 vs untreated): 1237 mg | Average tumor weight (B-16 melanoma; [4]): 7458 mg | Number of survivors over number of mice treated (B-16 melanoma; [4]): 3/8 | 50% inhibition in local tumor growth, in words (B-16 melanoma; monotherapy, i.p., day +26): failed to do so | Median survival time (B16 melanoma): > 90.0 days | Average tumor weight (B16 melanoma; Day +21): 202 mg | Average % of tumor weight inhibition (B16 melanoma; Day +21, * significant (≥58%)): 67% | No. Survivors/No. Treated (B16 melanoma; at +90 days, ** significant): 7/12 | % Increased life-span (B16 melanoma; + significant (≥25%)): > 70%

c1ccc([C@H]2CN3CCSC3=N2)cc1 [levamisole]
Stimulation of cellular immunity and tumor regression, in words (tumor): shown to stimulate cellular immunity and to produce tumor regression | Clinical antitumor success, in words [2]: Some successes have been claimed
